From US20020028836A1, “Potassium channel openers” (priority 2000, published 2002)
Like-named read-outs stand apart in the source and are kept apart here.

Key:
[1] = system: bladder contractions in male CD rats; test: In vivo bladder efficacy protocol (isovolumetric contractions model); design: species or system rat; conditions: iv, cumulative doses; dose reducing area under the curve of bladder contractions by 30% relative to control; urethane-anesthetized rats
From the text: The utility of compounds of the present invention for the treatment of urinary incontinence, bladder overactivity, and bladder instability is illustrated by the ability of compounds of the present invention to inhibit bladder contractions in vivo. The following method is illustrative of the in vivo bladder efficacy of compounds of the present invention.
Male CD rats (400-450 g) were anesthetized with urethane (0.6 g/kg ip+0.6 g/kg sc). The left femoral vein was cannulated with polyethylene (PE-50) tubing for the administration of test compound. A third polyethylene catheter (PE-60) was inserted 3-4 mm into the apex of the bladder dome and secured using a 5-0 silk purse string suture. The bladder was emptied via this catheter and additionally by applying slight manual pressure on the lower abdomen. The urinary catheter was connected using a Y-tube connector to both a pressure transducer and a syringe pump. The urethra was then ligated using 4-0 silk suture and the bladder was slowly filled using a constant infusion of room temperature saline at the rate of 0.1 mL/min until spontaneous rhythmic contractions were evident (1.0-1.3 mL). After the contractions stabilized to a consistent pattern, bladder pressure was monitored for 20 minutes before and after a dose of the vehicle (equal parts of β-cyclodextrin stock solution (100 g β-cyclodextrin dissolved in 200 mL) and sterile water) alone. Then three doses of a test compound were administered cumulatively intravenous (iv) at 20 minute intervals. Each dosing solution (1 mL/kg) was warmed to body temperature before dosing and was infused over 3 minutes to minimize dosing artifacts on the bladder pressure trace. Data were averaged over the last 10 minutes of each period and presented as percent change from control. Area under the curve of the bladder contractions was determined from the respective waveforms using a Modular Instruments, Inc. computerized data acquisition system and averaged over the last ten minutes of each twenty minute period. The doses required to reduce the area under the curve of the bladder contractions by 30% (AUC ED30%) relative to control were estimated using a customized Excel spreadsheet.

[2] = system: tissue strips obtained from Landrace pig bladders; test: Functional potassium channel opening activity in isolated bladder strips (field-stimulated twitch); conditions: for Index: ED50 for P1075 divided by ED50 for the test agonist in a given tissue, averaged; for EC50: amount of agent necessary to cause 50% of the agent's maximal response, read-out: ED50 (the source's name); for Emax / Efficacy (% P1075): maximal efficacy relative to P1075, field stimulation 0.05 Hz, 0.5 ms, 20 volts
How it was run: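 Mucosa-free female Landrace pig bladder strips in Krebs Ringer bicarbonate (pH 7.4, 37° C., 0.004 mM propranolol), 1.0 g preload, field-stimulated at 0.05 Hz, 0.5 ms, 20 V for twitch. Cumulative concentration-response curves; maximal efficacy as % of P1075, ED50 fitted, potency index = P1075 ED50/test ED50 per tissue, averaged.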

[3] = system: primary cultured guinea-pig urinary bladder (GPB) cells; test: Membrane hyperpolarization (MHP) assay, DiBAC(4)3 / FLIPR; assay type: cell-based; conditions: for EC50: concentration that elicits 50% of the maximal response for the test sample
How it was run: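 Primary smooth-muscle cells from male guinea-pig bladder, grown to confluence, loaded 30 min at 37° C with 5 μM DiBAC(4)3 in HEPES buffer pH 7.4. Fluorescence drop on FLIPR followed 25 min after compound; steady-state hyperpolarization normalized to 10 μM P1075 (100%), EC50 from four-parameter fit of five concentrations.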

[4] = Cavia porcellus, maximal steady-state hyperpolarization, normalized to response with 10 μM P1075 (100%)

SMILES	AUC EC30 [1] [µmol/kg]	Index [2]	EC50 ([2]; Sus scrofa) [µM]	Emax ([2]; Sus scrofa) [%]	EC50 ([3]; Cavia porcellus) [µM]	Emax [3, 4] [%]	EC50 [3] [µM]	Maximal Response (% P1075) ([3]; maximal steady-state hyperpolarization, normalized to response with 10 μM P1075 (100%))	EC50 [2] [µM]	Efficacy (% P1075) [2] [% P1075]	melting point [°C]
CC(Cl)(Cl)C(NC(=O)c1cccc(Cl)c1)NC(=NC#N)Nc1ccc(Cl)nc1 (stereo not drawn) [Example 153, 3-chloro-N-(2,2-dichloro-1-{[[(6-chloro-3-pyridinyl)amino](cyanoimino)methyl]amino}propyl)benzamide]	1	0.014	4.9	93	–	–	–	–	–	–	–
CC(C)(C)C(NC(=O)c1ccc(Cl)cc1)NC(=NC#N)Nc1cccnc1 (stereo not drawn) [Example 52, 4-chloro-N-(1-{[(cyanoimino)(3-pyridinylamino)methyl]amino}-2,2-dimethylpropyl)benzamide]	0.78	0.012	19	72	0.27	72	–	–	–	–	–
Cc1ccc(C(=O)NC(NC(=NC#N)Nc2ccccc2)C(Cl)(Cl)Cl)cc1 (stereo not drawn) [Example 46, N-(1-{[anilino(cyanoimino)methyl]amino}-2,2,2-trichloroethyl)-4-methylbenzamide]	0.70	0.015	5	84	0.04	105	–	–	–	–	–
C=CCC(C)(C)C(NC(=O)c1ccc(Cl)cc1)NC(=NC#N)Nc1cccnc1 (single isomer, unassigned; (+)) [Example 91, (+) 4-chloro-N-(1-{[(cyanoimino)(3-pyridinylamino)methyl]amino}-2,2-dimethyl-4-pentenyl)benzamide]	>10	0.360	–	–	–	–	2.9	68	0.83	46	–
Cc1ccc(C(=O)NC(NC(=NC#N)Nc2cccnc2)C(C)(C)C)cc1 (stereo not drawn) [Example 51, N-(1-{[(cyanoimino)(3-pyridinylamino)methyl]amino}-2,2-dimethylpropyl)-4-methylbenzamide]	0.28	0.006	17	–	–	88	0.57	–	–	100	–
CC(Cl)(Cl)C(NC(=O)c1ccc(Cl)cc1)NC(=NC#N)Nc1ccc(Cl)nc1 (stereo not drawn) [Example 160, 4-chloro-N-(2,2-dichloro-1-{[[(6-chloro-3-pyridinyl)amino](cyanoimino)methyl]amino}propyl)benzamide]	1.7	0.221	–	98	–	–	–	–	0.69	–	–
CC(C)(C)CC(NC(=O)c1ccc(Cl)cc1)NC(=N[N+](=O)[O-])Nc1cccnc1 (single isomer, unassigned; (-)) [Example 126, (−) 4-chloro-N-(1-{[(nitroimino)(3-pyridinylamino)methyl]amino}-3,3-dimethylbutyl)benzamide]	13.5	0.096	–	–	–	–	–	–	3.8	94	–
CC(C)CC(NC(=O)c1ccc(Cl)cc1)NC(=NC#N)Nc1cccnc1 (stereo not drawn) [Example 60, 4-chloro-N-(1-{[(cyanoimino)(3-pyridinylamino)methyl]amino}-3-methylbutyl)benzamide]	–	–	–	–	1	62	–	–	–	–	193 to 194
